Reference: DBAASP
Converted amounts (≈) assume the structure as drawn. Values belong to the molecule of their own block, whether it stands above or below them.

What was measured:
Test in all cases: ≥ marks a high value that may be exact or a test limit, other limits are often not marked, values filed in µg/mL are converted to µM
[1] = test system: Acinetobacter baumannii ATCC 19606
Acinetobacter baumannii = test system: Acinetobacter baumannii
[2] = test system: Bacillus subtilis ATCC 23857
[3] = test system: Enterococcus faecalis ATCC 29212
Escherichia coli 780 = test system: Escherichia coli 780
Escherichia coli 850 = test system: Escherichia coli 850
[4] = test system: Escherichia coli ATCC 25922
[5] = test system: Klebsiella pneumoniae ATCC 700603
[6] = test system: Pseudomonas aeruginosa 2760
[7] = test system: Pseudomonas aeruginosa ATCC 27853
[8] = test system: Staphylococcus aureus 725
[9] = test system: Staphylococcus aureus 936
[10] = test system: Staphylococcus aureus ATCC 25923
[11] = test system: Escherichia coli DH5alpha
[12] = test system: Escherichia coli NBRC 14237
[13] = test system: Micrococcus luteus NBRC 12708
[14] = test system: Pseudomonas aeruginosa NBRC 12582
[15] = test system: Staphylococcus aureus JCM 2151
[16] = test system: Staphylococcus aureus NBRC 12732
Enterococcus faecium = test system: Enterococcus faecium
[17] = test system: Staphylococcus aureus K35
[18] = test system: Staphylococcus aureus K52
[19] = test system: Acinetobacter baumannii ATCC 17978
[20] = test system: Bacillus subtilis ATCC 13933
[21] = test system: Candida albicans ATCC 90028
[22] = test system: Escherichia coli ATCC 700928
[23] = test system: Escherichia coli NCTC 12923
[24] = test system: Klebsiella pneumoniae NCTC 13368
[25] = test system: Pseudomonas aeruginosa PAO1
[26] = test system: Staphylococcus aureus ATCC 9144
[27] = test system: Staphylococcus aureus USA 300
Bacillus subtilis PS832 = test system: Bacillus subtilis PS832
Escherichia coli MG1655 = test system: Escherichia coli MG1655
[28] = test system: Escherichia coli K12 MG1655
[29] = test system: Staphylococcus aureus 68 HER 1049

Compound: CC[C@H](C)[C@H](NC(=O)[C@H](CCCCN)NC(=O)[C@H](CCCCN)NC(=O)[C@@H]1CCCN1C(=O)[C@H](CC(C)C)NC(=O)[C@H](CCCCN)NC(=O)[C@H](C)NC(=O)[C@H](CC(C)C)NC(=O)[C@@H]1CCCN1C(=O)[C@H](CCCCN)NC(=O)[C@H](CC(C)C)NC(=O)[C@H](CC(N)=O)NC(=O)[C@@H](NC(=O)[C@H](CCCCN)NC(=O)[C@@H]1CCCN1C(=O)[C@H](CC(C)C)NC(=O)[C@H](CC(C)C)NC(=O)[C@H](Cc1ccc(O)cc1)NC(=O)CNC(=O)[C@H](C)N)[C@@H](C)CC)C(=O)N[C@@H](CC(C)C)C(N)=O [AGYLLPKINLKPLAKLPKKIL]
MIC [1]: 54.9 µM (≈ 128 µg/mL)
MIC (Acinetobacter baumannii): ≥ 54.9 µM
MIC [2]: ≥ 54.9 µM
MIC [3]: > 54.9 µM
MIC (Escherichia coli 780): ≥ 54.9 µM
MIC (Escherichia coli 850): ≥ 54.9 µM
MIC [4]: > 54.9 µM
MIC [5]: > 54.9 µM
MIC [6]: ≥ 54.9 µM
MIC [7]: 54.9 µM (≈ 128 µg/mL)
MIC [8]: ≥ 54.9 µM
MIC [9]: ≥ 54.9 µM
MIC [10]: > 54.9 µM

Compound: CC[C@H](C)[C@H](NC(=O)[C@@H](N)Cc1ccccc1)C(=O)NCC(=O)N[C@@H](C)C(=O)N[C@@H](CC(C)C)C(=O)N[C@@H](CC(C)C)C(=O)N[C@@H](CCCN=C(N)N)C(=O)N1CCC[C@H]1C(=O)N[C@@H](C)C(=O)N[C@@H](CC(C)C)C(=O)N[C@@H](CCCCN)C(=O)N[C@@H](CC(C)C)C(=O)N[C@@H](CC(C)C)C(=O)N[C@@H](C)C(N)=O [FIGALLRPALKLLA]
MIC [11]: ≥ 33.4 µM
MIC [12]: 12.5 µM (≈ 18.7 µg/mL)
MIC [13]: 25 µM (≈ 37.4 µg/mL)
MIC [14]: ≥ 50 µM
MIC [15]: 6.48 µM (≈ 9.69 µg/mL)
MIC [16]: 12.5 µM (≈ 18.7 µg/mL)

Compound: CC(C)C[C@H](NC(=O)[C@H](CC(C)C)NC(=O)CNC(=O)[C@H](CO)NC(=O)[C@H](CC(C)C)NC(=O)[C@@H](NC(=O)[C@H](CCCN=C(N)N)NC(=O)CNC(=O)[C@H](CC(C)C)NC(=O)[C@H](CC(C)C)NC(=O)[C@@H]1CCCN1C(=O)[C@H](CC(C)C)NC(=O)[C@@H](N)Cc1ccccc1)C(C)C)C(N)=O [FLPLLGRVLSGLL]
MIC [3]: 10.5 µM (≈ 14.7 µg/mL)
MIC (Enterococcus faecium): 5.6 µM (≈ 7.82 µg/mL)
MIC [10]: 5.2 µM (≈ 7.26 µg/mL)
MIC [17]: 2.8 µM (≈ 3.91 µg/mL)
MIC [18]: 2.8 µM (≈ 3.91 µg/mL)

Second part, the molecule after the results:

MIC [19]: ≥ 52 µM
MIC [20]: ≥ 48.8 µM
MIC [21]: 1.9 µM (≈ 4.67 µg/mL)
MIC [22]: ≥ 48.8 µM
MIC [23]: ≥ 52 µM
MIC [24]: ≥ 52 µM
MIC [25]: > 52 µM
MIC [26]: ≥ 52 µM
MIC [27]: ≥ 52 µM
Compound: CC[C@H](C)[C@H](NC(=O)CNC(=O)[C@@H](N)CCCCN)C(=O)N[C@@H](CCCN=C(N)N)C(=O)NCC(=O)N[C@@H](Cc1ccc(O)cc1)C(=O)N[C@@H](CCCCN)C(=O)NCC(=O)NCC(=O)N[C@@H](Cc1ccc(O)cc1)C(=O)N[C@@H](CS)C(=O)N[C@@H](CCCCN)C(=O)NCC(=O)N[C@@H](C)C(=O)N[C@@H](Cc1ccccc1)C(=O)N[C@@H](CCCCN)C(=O)N[C@@H](CCC(N)=O)C(=O)N[C@H](C(=O)N[C@@H](CS)C(=O)N[C@@H](CCCCN)C(=O)N[C@@H](CS)C(=O)N[C@@H](Cc1ccc(O)cc1)C(=O)O)[C@@H](C)O [KGIRGYKGGYCKGAFKQTCKCY]

MIC (Bacillus subtilis PS832): 8 µM (≈ 12.3 µg/mL)
MIC (Escherichia coli MG1655): 8 µM (≈ 12.3 µg/mL)
Compound: CC[C@H](C)[C@H](NC(=O)[C@H](CCCN=C(N)N)NC(=O)[C@H](CCCCN)NC(=O)[C@H](CC(C)C)NC(=O)[C@H](CC(C)C)NC(=O)CNC(=O)[C@H](Cc1cnc[nH]1)NC(=O)[C@H](CCCCN)NC(=O)[C@@H](N)CC(C)C)C(=O)N[C@@H](CCCCN)C(=O)N[C@H](C(=O)N[C@@H](CC(C)C)C(=O)N[C@@H](CC(C)C)C(N)=O)[C@@H](C)O [LKHGLLKRIKTLL]

MIC [28]: 0.954 µM (≈ 2 µg/mL)
MIC [29]: 3.82 µM (≈ 8 µg/mL)
Compound: CC[C@H](C)[C@H](NC(=O)[C@H](CCCN=C(N)N)NC(=O)[C@H](CCCN=C(N)N)NC(=O)[C@H](CC(C)C)NC(=O)[C@H](CCCCN)NC(=O)[C@H](CCCCN)NC(=O)[C@H](Cc1c[nH]c2ccccc12)NC(=O)[C@H](CCCCN)NC(=O)[C@H](CCCCN)NC(=O)[C@H](Cc1c[nH]c2ccccc12)NC(=O)[C@@H](N)Cc1ccc(O)cc1)C(=O)N[C@@H](Cc1ccccc1)C(=O)N[C@@H](CCSC)C(=O)N[C@@H](CC(C)C)C(=O)N[C@H](C(=O)O)C(C)C [YWKKWKKLRRIFMLV]
